Results on one compound are retold here after article PMC10353060, “A Chemical Chaperone Restores Connexin 26 Mutant Activity” (ACS Pharmacology & Translational Science, 2023).

One assay concerns the target T1, connexin 26 (Cx26) K188N (Homo sapiens, UniProt P29033, K188N).
T1 construct: gene GJB2; purified recombinant connexin channel, His-tag Cy5 labeled
The experiment in a line: microscale thermophoresis (MST). The note with it: read-out: EC50. The format is binding. A general note: MST reads how a fluorescent partner responds to local heating, with and without ligand.

The next assay concerns the target T2, connexin 26 (Cx26) (Homo sapiens, UniProt P29033).
T2 construct: gene GJB2; purified recombinant WT connexin channel, His-tag Cy5 labeled
Kind of assay: microscale thermophoresis (MST). The format is binding. Conditions: read-out: EC50.

`O=C(Nc1ncc([C@H](c2ccccc2Cl)N2CC[C@@H](O)C2)s1)C1(c2ccc3c(c2)OCO3)CC1` [compound 3, 1-(benzo[d][1,3]dioxol-5-yl)-N-(5-((S)-(2-chlorophenyl)((R)-3-hydroxypyrrolidin-1-yl)methyl)thiazol-2-yl) cyclopropanecarboxamide]: the figures for the Kd on connexin 26 (Cx26) K188N and on connexin 26 (Cx26) were 4.75 ± 1 µM and 19.3 ± 7.3 µM, respectively.
